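Compound exposure: 48 hours, 5 concentrations, 96-well plates. At the GI50, growth is halved. The concentration for full growth arrest is given as TGI.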

Some test systems named below: RPMI-8226 leukemia; T-47D breast; SN12C renal; SK-MEL-28 melanoma; ACHN renal; MALME-3M melanoma; M14 melanoma; HOP-62 NSCLC.
What all share (assay): NCI-60 cell line screen, 48 h

For `c1ccc2c(c1)ccc1c3ccccc3ccc21`, the GI50 with RPMI-8226 leukemia was above 50000 nM; in the assay on T-47D breast it was above 50 µM; with SN12C renal it was above 50 µM; in the assay with SK-MEL-28 melanoma, above 50 µM; in the assay on ACHN renal, above 50 µM; in the assay on MALME-3M melanoma, above 50 µM. Further, the GI50 was above 50000 nM with M14 melanoma and above 50 µM in the assay with HOP-62 NSCLC. In addition, the TGI in the assay on RPMI-8226 leukemia, in the assay with T-47D breast, with SN12C renal, with SK-MEL-28 melanoma, in the assay on ACHN renal and with MALME-3M melanoma was above 50 µM in each case. Further, the TGI in the assay with M14 melanoma and with HOP-62 NSCLC was above 50 µM in each case.
Turning to `O=C1C(=O)c2c(nc3ncccn23)-c2ccccc21`, the GI50 with RPMI-8226 leukemia was 198 nM; in the assay on T-47D breast, 0.264 µM; with SN12C renal, 0.173 µM; in the assay with SK-MEL-28 melanoma it was 0.21 µM; in the assay with ACHN renal it was 0.174 µM; in the assay with MALME-3M melanoma, 0.169 µM. Further, the GI50 in the assay with M14 melanoma was 182 nM; in the assay with HOP-62 NSCLC, 0.296 µM. Also, the TGI in the assay with RPMI-8226 leukemia worked out at 0.602 µM; in the assay on T-47D breast, 1.02 µM; in the assay with SN12C renal, 0.325 µM; in the assay with SK-MEL-28 melanoma, 0.41 µM; in the assay with ACHN renal it was 0.373 µM; in the assay with MALME-3M melanoma it was 0.307 µM. For the same compound, the TGI in the assay with M14 melanoma came to 0.343 µM; in the assay with HOP-62 NSCLC, 1.05 µM.
As for `CC12CCC(O)CC1CCC1C2CCC2(C)C(C3=CC(=O)OC3)CCC12` (centres undefined), the GI50 is 1270 nM in the assay with RPMI-8226 leukemia; 22.3 µM with T-47D breast; 53.8 µM in the assay on SN12C renal; 28.2 µM with SK-MEL-28 melanoma; 26.4 µM with ACHN renal; 26.3 µM with MALME-3M melanoma. Besides, the GI50 with M14 melanoma is above 100000 nM; in the assay with HOP-62 NSCLC, 9.53 µM. The TGI with RPMI-8226 leukemia is above 100 µM; in the assay on T-47D breast, above 100 µM; in the assay on SN12C renal it was above 100 µM; with SK-MEL-28 melanoma, above 100 µM; in the assay with ACHN renal, above 91.3 µM; in the assay on MALME-3M melanoma it was above 90.1 µM. Besides, the TGI in the assay on M14 melanoma is above 100 µM; in the assay with HOP-62 NSCLC, 44.9 µM.
As for `Cc1[nH]nc(C(=O)Nc2n[nH]c3ccccc23)c1[N+](=O)[O-]`, the GI50 with RPMI-8226 leukemia was above 71500 nM; in the assay on T-47D breast, above 100 µM; in the assay with SN12C renal, above 100 µM; with SK-MEL-28 melanoma, above 100 µM; in the assay on ACHN renal, above 100 µM; with MALME-3M melanoma it was above 100 µM. For the same compound, the figures for the GI50 with M14 melanoma and with HOP-62 NSCLC were above 96200 nM and above 100 µM, respectively. The TGI in the assay on RPMI-8226 leukemia, in the assay with T-47D breast, in the assay on SN12C renal, with SK-MEL-28 melanoma, in the assay with ACHN renal and in the assay with MALME-3M melanoma was above 100 µM each time. The TGI in the assay on M14 melanoma and with HOP-62 NSCLC was above 100 µM each time.
With `CCC(C)CC(CC)NCCN1CCN(C(CC)CC(C)CC)C1=S` (centres undefined), the GI50 in the assay on RPMI-8226 leukemia was 1850 nM; in the assay on T-47D breast, 1.72 µM; with SN12C renal it was 2.55 µM; in the assay with SK-MEL-28 melanoma, 1.69 µM; with ACHN renal it was 1.76 µM; in the assay with MALME-3M melanoma it was 1.74 µM. The GI50 in the assay with M14 melanoma was 1790 nM; in the assay on HOP-62 NSCLC, 1.82 µM. The TGI amounted to 4.25 µM with RPMI-8226 leukemia; 3.57 µM in the assay on T-47D breast; 7.83 µM with SN12C renal; 3.06 µM in the assay with SK-MEL-28 melanoma; 3.14 µM with ACHN renal; 3.19 µM in the assay on MALME-3M melanoma. For the same compound, the TGI was 3.25 µM in the assay with M14 melanoma and 3.21 µM in the assay on HOP-62 NSCLC.
As to `O=C1C=C(Nc2nc(C(=O)O)cc(=O)[nH]2)c2ccccc2C1=O`, the TGI with RPMI-8226 leukemia, in the assay with T-47D breast, with SN12C renal, in the assay on SK-MEL-28 melanoma, with ACHN renal and in the assay on MALME-3M melanoma was above 100 µM throughout. Besides, the TGI with M14 melanoma and in the assay with HOP-62 NSCLC was above 100 µM in each case.
Consider `COc1ccc(-c2nn(-c3cccc(NC(=O)Nc4cccc(C(F)(F)F)c4)c3)cc2-c2ccncc2)cc1Cl`, for which the GI50 was 1020 nM in the assay with RPMI-8226 leukemia; 1.17 µM in the assay on T-47D breast; 2.4 µM in the assay on SN12C renal; 2.57 µM with SK-MEL-28 melanoma; 1.88 µM in the assay with ACHN renal; 2.07 µM in the assay with MALME-3M melanoma. For the same compound, the GI50 in the assay on M14 melanoma is 1630 nM; in the assay with HOP-62 NSCLC it was 2.81 µM. For the same compound, the TGI in the assay on RPMI-8226 leukemia is 4.54 µM; with T-47D breast, 7.69 µM; in the assay with SN12C renal it was above 100 µM; in the assay with SK-MEL-28 melanoma, 22.6 µM; in the assay on ACHN renal, above 100 µM; with MALME-3M melanoma it was 8.72 µM. In addition, the TGI in the assay with M14 melanoma came out at 4.62 µM; in the assay with HOP-62 NSCLC, 10.9 µM.
For `O=[N+]([O-])c1ccc2c(c1)S(=O)c1ccccc1-2` (centres undefined), the TGI in the assay on RPMI-8226 leukemia, in the assay with T-47D breast, in the assay with SN12C renal, with SK-MEL-28 melanoma, in the assay with ACHN renal and in the assay on MALME-3M melanoma was above 100 µM in each case. For the same compound, the TGI in the assay on M14 melanoma and in the assay on HOP-62 NSCLC was above 100 µM each time.
Take `C=C1C(=O)O[C@H]2[C@H]1CC/C(COC(=O)C(=O)c1cn(C)c3ccc(OC)cc13)=C\CC[C@@]1(C)O[C@@H]21`: the GI50 in the assay on RPMI-8226 leukemia is 2340 nM; with T-47D breast, 5.98 µM; in the assay with SN12C renal, 6.1 µM; in the assay on SK-MEL-28 melanoma, 3.14 µM; in the assay with ACHN renal, 3.18 µM; in the assay with MALME-3M melanoma, 5.62 µM. For the same compound, the values for the GI50 in the assay on M14 melanoma and in the assay on HOP-62 NSCLC were 3220 nM and 6.46 µM, respectively. The TGI in the assay with RPMI-8226 leukemia came to 19.5 µM; with T-47D breast, 11.1 µM; in the assay on SN12C renal, 12.8 µM; in the assay on SK-MEL-28 melanoma it was 8.49 µM; in the assay with ACHN renal, 7.79 µM; in the assay on MALME-3M melanoma, 9.91 µM. The TGI came to 8.27 µM in the assay on M14 melanoma and 11.9 µM with HOP-62 NSCLC.
Take `NCC(=O)CCC(=O)O`: the GI50 was above 100000 nM in the assay with RPMI-8226 leukemia; above 100 µM in the assay with T-47D breast; above 100 µM in the assay on SN12C renal; above 100 µM with SK-MEL-28 melanoma; above 100 µM in the assay on ACHN renal; above 100 µM with MALME-3M melanoma. Also, the GI50 is above 100000 nM with M14 melanoma and above 100 µM in the assay with HOP-62 NSCLC. Moreover, the TGI in the assay on RPMI-8226 leukemia, with T-47D breast, with SN12C renal, in the assay with SK-MEL-28 melanoma, with ACHN renal and with MALME-3M melanoma was above 100 µM in each case. Besides, the TGI in the assay with M14 melanoma and with HOP-62 NSCLC was above 100 µM in each case.

Source of the values: PubChem BioAssay (NCI).
